# ChEMBL document CHEMBL1201862, “PubChem BioAssay data set” (2004)
#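 Five concentrations, 48 hours, 96-well plates. GI50 marks 50% less growth.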 Calls of active or inactive are those of the source. Cut-off read from the data, not from the text of the source: active = GI50 up to about 1.1 µM and inactive = higher.
# What was measured:
# Experiment in all cases: inhibition of tumour cell growth, NCI panel, 48 h
# HCT-15 = test system: HCT-15
# SF-539 = test system: SF-539
# KM12 = test system: KM12
# HOP-92 = test system: HOP-92
# RPMI-8226 = test system: RPMI-8226
# NCI-H23 = test system: NCI-H23
# MCF7 = test system: MCF7
# SNB-19 = test system: SNB-19
# HCC 2998 = test system: HCC 2998
# CCRF-CEM = test system: CCRF-CEM
# SK-MEL-5 = test system: SK-MEL-5
# UO-31 = test system: UO-31
# HOP-62 = test system: HOP-62
# A549 = test system: A549
# SN12C = test system: SN12C
# OVCAR-8 = test system: OVCAR-8
# NCI-H460 = test system: NCI-H460
# COLO 205 = test system: COLO 205
# OVCAR-5 = test system: OVCAR-5
# NCI-H226 = test system: NCI-H226
Structure (SMILES),GI50 (HCT-15) [µM],GI50 (SF-539),GI50 (KM12),GI50 (HOP-92),GI50 (RPMI-8226),GI50 (NCI-H23),GI50 (MCF7),GI50 (SNB-19),GI50 (HCC 2998),GI50 (CCRF-CEM),GI50 (SK-MEL-5),GI50 (UO-31),GI50 (HOP-62),GI50 (A549),GI50 (SN12C),GI50 (OVCAR-8),GI50 (NCI-H460),GI50 (COLO 205),GI50 (OVCAR-5),GI50 (NCI-H226)
CNc1ncnc2c1ncn2C1C=CC(COS(N)(=O)=O)C1 (stereo not drawn),> 100,> 100 µM (inactive),> 100 µM (inactive),> 100 µM (inactive),> 100 µM (inactive),> 100 µM (inactive),> 100 µM (inactive),> 100 µM (inactive),> 100 µM (inactive),> 100 µM (inactive),> 100 µM (inactive),> 100 µM (inactive),> 100 µM (inactive),> 100 µM (inactive),> 100 µM (inactive),> 100 µM (inactive),> 100 µM (inactive),> 100 µM (inactive),–,–
CC(=O)Nc1ccc(OC/C(N)=N/NC(=O)c2ccncc2)cc1,> 100,> 100 µM (inactive),> 100 µM (inactive),> 100 µM (inactive),> 100 µM (inactive),> 100 µM (inactive),> 100 µM (inactive),> 100 µM (inactive),> 100 µM (inactive),> 100 µM (inactive),–,–,> 100 µM (inactive),> 100 µM (inactive),> 100 µM (inactive),> 100 µM (inactive),> 100 µM (inactive),> 100 µM (inactive),> 100 µM (inactive),–
CN(C)c1ccc(C=C2N=C(c3ccccc3)N(c3cc(C(=O)c4ccccc4)ccc3N3C(=O)/C(=C/c4ccc(N(C)C)cc4)N=C3c3ccccc3)C2=O)cc1,4.49,2.34 µM (inactive),3.71 µM (inactive),> 100 µM (inactive),3.01 µM (inactive),–,3.33 µM (inactive),7.94 µM (inactive),3.76 µM (inactive),3.49 µM (inactive),3.42 µM (inactive),15.8 µM (inactive),20.7 µM (inactive),6.31 µM (inactive),58.7 µM (inactive),11.5 µM (inactive),3.94 µM (inactive),3.74 µM (inactive),35.5 µM (inactive),–
Cc1ccc(CS(=O)(=O)C/N=C2\Sc3ccccc3N\C2=C/C(=O)c2ccc(Cl)cc2)cc1,> 10,> 10 µM (inactive),> 10 µM (inactive),> 10 µM (inactive),> 10 µM (inactive),> 10 µM (inactive),0.703 µM (active),> 10 µM (inactive),> 10 µM (inactive),1 µM (active),> 10 µM (inactive),–,8.22 µM (inactive),> 10 µM (inactive),> 10 µM (inactive),> 10 µM (inactive),–,> 10 µM (inactive),> 10 µM (inactive),–
Cc1c(Cc2ccccc2)c(Cc2ccccc2)c(C)[s+]1[O-],31.3,45.2 µM (inactive),17.3 µM (inactive),27.4 µM (inactive),19.7 µM (inactive),28.3 µM (inactive),20.3 µM (inactive),47.1 µM (inactive),19.6 µM (inactive),19.1 µM (inactive),15.6 µM (inactive),31.7 µM (inactive),50.4 µM (inactive),30.2 µM (inactive),26.5 µM (inactive),41.3 µM (inactive),27.5 µM (inactive),20.5 µM (inactive),20.1 µM (inactive),–
COc1cc(N(CCC#N)CCC#N)ccc1C(/N=N/c1cccc([N+](=O)[O-])c1)=N\NC(=O)c1ccc(C)cc1,80.2,–,> 100 µM (inactive),33.9 µM (inactive),18.6 µM (inactive),37.1 µM (inactive),45 µM (inactive),> 100 µM (inactive),26 µM (inactive),20.6 µM (inactive),59 µM (inactive),71 µM (inactive),> 100 µM (inactive),> 100 µM (inactive),> 100 µM (inactive),89.5 µM (inactive),24.3 µM (inactive),> 100 µM (inactive),> 100 µM (inactive),> 100 µM (inactive)
